{
  "source": "patent US20140314697A1",
  "about": "“Method for Inhibiting Inflammation and Reducing Melanophilin Expression with Glycine Derivatives And the Composition Thereof” (CORUM INC., priority 2013, published 2014)",
  "key": {"[1]": {"test_system": "Mouse IL-6 secretion, RAW264.7", "experiment": "Mouse IL-6 production in Raw264.7 cells (ELISA)", "type": "cell-based", "conditions": "for Mouse IL-6 Content, Average / Mouse IL-6 Content, Entry 2 / Mouse IL-6 Content, Entry 3 / Mouse IL-6 Content, Entry 1: Raw264.7, LPS & IFN-r, 24 hours, Positive Control 100%; for Mouse IL-6 Content, Entry 2: passage N + 3; for Mouse IL-6 Content, Entry 3: passage N + 6; for Mouse IL-6 Content, Entry 1: passage N + 7", "method": "(§1) Murine macrophage cell line RAW264.7 (BCRC No. 60001)\n(§2) Complete Medium (as negative control): DMEM medium with 10% Fetal Bovine Serum\n(§3) Testing Medium (as positive control): 100 ng/mL LPS and 10 ng/mL IFN-r in Complete Medium\n(§4) a. Rinse the confluent Raw264.7 cells with sterile D-PBS then trypsinize all cells and perform cell counting.\n(§5) b. Dilute the cell density to 2E+05/mL and seed 0.1 mL cell liquid (equals to 2E+04 cells) each well in 96-well plate.\n(§6) c. Incubate Raw264.7 cells at 37° C., 5% CO2 for about 24 hours.\n(§7) d. Prepared 2× dosing solution of testing material in 2× Testing Medium (means w/ 200 ng/mL ? LPS&20 ng/mL ? IFN-r): 0.8%, 0.4%, 0.2%, 0.1% (Final testing material: 0.4%, 0.2%, 0.1%, 0.05%)\n(§8) e. […] Add 100 μL controls and testing materials in different concentrations into Raw264.7 cells in 96 well plates. Controls/Test materials should be tested at least three wells.\n(§9) f. Incubate Raw264.7 cells at 37° C., 5% CO2 for about 24 hours.\n(§10) g. After incubating for about 24 hours, collect the supernatant of controls and testing materials.\n(§11) h. Determine the IL-6/MIP-2 content of the supernatant by R&D ELISA kit as mentioned previously."}, "[2]": {"test_system": "Mouse MIP-2 secretion, RAW264.7", "experiment": "Mouse MIP-2 production in Raw264.7 cells (ELISA)", "type": "cell-based", "conditions": "for Mouse MIP-2 Content, Average / Mouse MIP-2 Content, Entry 2 / Mouse MIP-2 Content, Entry 1 / Mouse MIP-2 Content, Entry 3: Raw264.7, LPS & IFN-r, 24 hours, Positive Control 100%; for Mouse MIP-2 Content, Entry 2: passage N + 3; for Mouse MIP-2 Content, Entry 1: passage N + 5; for Mouse MIP-2 Content, Entry 3: passage N + 6", "method": "as §1, §2, §3, §4, §5, §6, §7, §8, §9, §10, §11"}, "NHEK cells": {"test_system": "NHEK cells", "experiment": "Cell viability on NHEK", "type": "cell-based, Human", "conditions": "for cell viability on NHEK, Average / cell viability on NHEK, Entry 1 / cell viability on NHEK, Entry 2 / cell viability on NHEK, Entry 3: 40 mJ/cm^2 UVB, Positive Control 100%; for cell viability on NHEK, Entry 1: passage 2 + 2; for cell viability on NHEK, Entry 2 / cell viability on NHEK, Entry 3: passage 2 + 3", "method": "4.4. Cell Viability is Tested by Neutral Red Uptake Experience or MTT Assay."}, "age spot": {"test_system": "age spot", "experiment": "Skin whitening test: age spot photography, Reverse Photo Engineering quantitative analysis", "type": "in vivo, human", "conditions": "for Age Spot Reduction - Reverse Photo Engineering Data, Max % Improvement / Age Spot Reduction - Reverse Photo Engineering Data, % Difference: 0.2% Ac-Gly-β-Ala sample", "method": "In this example, the in-vivo skin test is finished by AMA Laboratories USA. The skin color changes are evaluated with Minolta chromameter color computer system. The Age spot photography is evaluated with Reverse Photo Engineering Quantitative Analysis.\nIn terms of age spot photography, the participants were 5 women aged 38-49 years old, wherein four of the participants were caucasian, and one was Asian. The participants were tested before (baseline), and after using 14, 28, 56 days with high-resolution digital camera, then Reverse Photo Engineering quantitative analysis to perform the age spot change evaluation."}},
  "note": "Marks after values point to notes of the source that are not given here.",
  "data": [
    {"smiles": "CC(=O)NCC(=O)NCCC(=O)O", "note": "[Ac-Gly-β-Ala, 3-(2-acetylamino-acetylamino)-propionic acid]", "values": [
      {"measurement": "IL-6 production, dose dependence", "setting": "[1]; 0.05%-0.4%, Raw264.7", "value": "dose-dependently inhibited"},
      {"measurement": "Mouse IL-6 Content, Average", "setting": "[1]; 0.05%", "value": 97, "unit": "%"},
      {"measurement": "Mouse IL-6 Content, Entry 2", "setting": "[1]; 0.05%", "value": 105, "unit": "%"},
      {"measurement": "Mouse IL-6 Content, Entry 3", "setting": "[1]; 0.05%", "value": 95, "unit": "%"},
      {"measurement": "Mouse IL-6 Content, Entry 1", "setting": "[1]; 0.05%", "value": 91, "unit": "%"},
      {"measurement": "Mouse IL-6 Content, Average", "setting": "[1]; 0.10%", "value": 86, "unit": "%"},
      {"measurement": "Mouse IL-6 Content, Entry 2", "setting": "[1]; 0.10%", "value": 96, "unit": "%"},
      {"measurement": "Mouse IL-6 Content, Entry 3", "setting": "[1]; 0.10%", "value": 78, "unit": "%"},
      {"measurement": "Mouse IL-6 Content, Entry 1", "setting": "[1]; 0.10%", "value": 85, "unit": "%"},
      {"measurement": "Mouse IL-6 Content, Average", "setting": "[1]; 0.20%", "value": 54, "unit": "%"},
      {"measurement": "Mouse IL-6 Content, Entry 2", "setting": "[1]; 0.20%", "value": 58, "unit": "%"},
      {"measurement": "Mouse IL-6 Content, Entry 3", "setting": "[1]; 0.20%", "value": 42, "unit": "%"},
      {"measurement": "Mouse IL-6 Content, Entry 1", "setting": "[1]; 0.20%", "value": 64, "unit": "%"},
      {"measurement": "Mouse IL-6 Content, Average", "setting": "[1]; 0.40%", "value": 34, "unit": "%"},
      {"measurement": "Mouse IL-6 Content, Entry 2", "setting": "[1]; 0.40%", "value": 40, "unit": "%"},
      {"measurement": "Mouse IL-6 Content, Entry 3", "setting": "[1]; 0.40%", "value": 40, "unit": "%"},
      {"measurement": "Mouse IL-6 Content, Entry 1", "setting": "[1]; 0.40%", "value": 24, "unit": "%"},
      {"measurement": "MIP-2 production, dose dependence", "setting": "[2]; 0.05%-0.4%, Raw264.7", "value": "inhibited MIP-2 production in dose-dependent manner"},
      {"measurement": "Mouse MIP-2 Content, Average", "setting": "[2]; 0.05%", "value": 78, "unit": "%"},
      {"measurement": "Mouse MIP-2 Content, Entry 2", "setting": "[2]; 0.05%", "value": 79, "unit": "%"},
      {"measurement": "Mouse MIP-2 Content, Entry 1", "setting": "[2]; 0.05%", "value": 75, "unit": "%"},
      {"measurement": "Mouse MIP-2 Content, Entry 3", "setting": "[2]; 0.05%", "value": 81, "unit": "%"},
      {"measurement": "Mouse MIP-2 Content, Average", "setting": "[2]; 0.10%", "value": 65, "unit": "%"},
      {"measurement": "Mouse MIP-2 Content, Entry 2", "setting": "[2]; 0.10%", "value": 66, "unit": "%"},
      {"measurement": "Mouse MIP-2 Content, Entry 1", "setting": "[2]; 0.10%", "value": 64, "unit": "%"},
      {"measurement": "Mouse MIP-2 Content, Entry 3", "setting": "[2]; 0.10%", "value": 65, "unit": "%"},
      {"measurement": "Mouse MIP-2 Content, Average", "setting": "[2]; 0.20%", "value": 48, "unit": "%"},
      {"measurement": "Mouse MIP-2 Content, Entry 2", "setting": "[2]; 0.20%", "value": 44, "unit": "%"},
      {"measurement": "Mouse MIP-2 Content, Entry 1", "setting": "[2]; 0.20%", "value": 50, "unit": "%"},
      {"measurement": "Mouse MIP-2 Content, Entry 3", "setting": "[2]; 0.20%", "value": 48, "unit": "%"},
      {"measurement": "Mouse MIP-2 Content, Average", "setting": "[2]; 0.40%", "value": 31, "unit": "%"},
      {"measurement": "Mouse MIP-2 Content, Entry 2", "setting": "[2]; 0.40%", "value": 32, "unit": "%"},
      {"measurement": "Mouse MIP-2 Content, Entry 1", "setting": "[2]; 0.40%", "value": 21, "unit": "%"},
      {"measurement": "Mouse MIP-2 Content, Entry 3", "setting": "[2]; 0.40%", "value": 38, "unit": "%"},
      {"measurement": "cell viability on NHEK, Average", "setting": "NHEK cells; 0.01%", "value": 80, "unit": "%"},
      {"measurement": "cell viability on NHEK, Entry 1", "setting": "NHEK cells; 0.01%", "value": 80, "unit": "%"},
      {"measurement": "cell viability on NHEK, Entry 2", "setting": "NHEK cells; 0.01%", "value": 82, "unit": "%"},
      {"measurement": "cell viability on NHEK, Entry 3", "setting": "NHEK cells; 0.01%", "value": 76, "unit": "%"},
      {"measurement": "cell viability on NHEK, Average", "setting": "NHEK cells; 0.03%", "value": 84, "unit": "%"},
      {"measurement": "cell viability on NHEK, Entry 1", "setting": "NHEK cells; 0.03%", "value": 88, "unit": "%"},
      {"measurement": "cell viability on NHEK, Entry 2", "setting": "NHEK cells; 0.03%", "value": 80, "unit": "%"},
      {"measurement": "cell viability on NHEK, Entry 3", "setting": "NHEK cells; 0.03%", "value": 83, "unit": "%"},
      {"measurement": "cell viability on NHEK, Average", "setting": "NHEK cells; 0.05%", "value": 93, "unit": "%"},
      {"measurement": "cell viability on NHEK, Entry 1", "setting": "NHEK cells; 0.05%", "value": 93, "unit": "%"},
      {"measurement": "cell viability on NHEK, Entry 2", "setting": "NHEK cells; 0.05%", "value": 90, "unit": "%"},
      {"measurement": "cell viability on NHEK, Entry 3", "setting": "NHEK cells; 0.05%", "value": 95, "unit": "%"},
      {"measurement": "cell viability on NHEK, Average", "setting": "NHEK cells; 0.10%", "value": 108, "unit": "%"},
      {"measurement": "cell viability on NHEK, Entry 1", "setting": "NHEK cells; 0.10%", "value": 109, "unit": "%"},
      {"measurement": "cell viability on NHEK, Entry 2", "setting": "NHEK cells; 0.10%", "value": 103, "unit": "%"},
      {"measurement": "cell viability on NHEK, Entry 3", "setting": "NHEK cells; 0.10%", "value": 110, "unit": "%"},
      {"measurement": "cell viability on NHEK, Average", "setting": "NHEK cells; 0.20%", "value": 109, "unit": "%"},
      {"measurement": "cell viability on NHEK, Entry 1", "setting": "NHEK cells; 0.20%", "value": 106, "unit": "%"},
      {"measurement": "cell viability on NHEK, Entry 2", "setting": "NHEK cells; 0.20%", "value": 107, "unit": "%"},
      {"measurement": "cell viability on NHEK, Entry 3", "setting": "NHEK cells; 0.20%", "value": 113, "unit": "%"},
      {"measurement": "cell viability on NHEK, Average", "setting": "NHEK cells; 0.40%", "value": 93, "unit": "%"},
      {"measurement": "cell viability on NHEK, Entry 1", "setting": "NHEK cells; 0.40%", "value": 106, "unit": "%"},
      {"measurement": "cell viability on NHEK, Entry 2", "setting": "NHEK cells; 0.40%", "value": 95, "unit": "%"},
      {"measurement": "cell viability on NHEK, Entry 3", "setting": "NHEK cells; 0.40%", "value": 79, "unit": "%"},
      {"measurement": "Cell viability", "setting": "NHEK cells; NHEK, all of dosing solution", "value": "higher than 80%"},
      {"measurement": "Age Spot Reduction - Reverse Photo Engineering Data, Max % Improvement", "setting": "age spot; Day 14", "value": "−51.67", "unit": "%"},
      {"measurement": "Age Spot Reduction - Reverse Photo Engineering Data, % Difference", "setting": "age spot; Day 14 vs baseline", "value": "−41.47", "unit": "%*"},
      {"measurement": "Age Spot Reduction - Reverse Photo Engineering Data, Max % Improvement", "setting": "age spot; Day 28", "value": "−80.63", "unit": "%"},
      {"measurement": "Age Spot Reduction - Reverse Photo Engineering Data, % Difference", "setting": "age spot; Day 28 vs baseline", "value": "−63.37", "unit": "%"},
      {"measurement": "Age Spot Reduction - Reverse Photo Engineering Data, Max % Improvement", "setting": "age spot; Day 56", "value": "−87.40", "unit": "%"},
      {"measurement": "Age Spot Reduction - Reverse Photo Engineering Data, % Difference", "setting": "age spot; Day 56 vs baseline", "value": "−73.07", "unit": "%*"},
      {"measurement": "quantitative analyzed data for the age spot change evaluation", "setting": "age spot; sample containing 0.2% Ac-Gly-β-Ala", "value": "significantly decreased"}
    ]}
  ]
}
